Here are results for one molecule from article PMC13101830 (Pharmaceutical research, 2023).

The test system of this data set is BBB-mimicking system with the co-culture of bEnd.3 and astrocytes. The experiment in a line: In vitro BBB permeability assay in BBB-mimicking co-culture model. The settings on record: 10 μg/ml in top chamber, 30-120 min, 37°C. The class given is in vitro ADME, mouse.

SMILES strings stand for the structures. Where a SMILES comes first, the peptide text is derived from it.

With `N[C@@H](Cc1cnc[nH]1)C(=O)N[C@@H](Cc1ccc(O)cc1)C(=O)O` [His-Tyr] (H-His-Tyr-OH), the “permeability coefficient (Pe), apical to basolateral (A > B)” value is 0.12 ± 0.02 × 10^−5 cm^2/second.
